Assay results from ChEMBL document CHEMBL1671859, “bla(IMP-4) in different genetic contexts in Enterobacteriaceae isolates from Australia” (2008).

Assays:
Assay type in all cases: functional
[1] = system: Klebsiella pneumoniae; assay: Antibacterial activity against Klebsiella pneumoniae isolate Kp2730 harboring IncL/M plasmid and blaIMP-4-qacG2-aacA4-catB3 and dfrA12-orfF-aadA2 arrays by Etest method in presence of clavulanic acid
[2] = system: Enterobacter cloacae; assay: Antibacterial activity against Enterobacter cloacae isolate El3280 harboring IncL/M plasmid and blaIMP-4-qacG2-aacA4-catB3 array by Etest method in presence of clavulanic acid
[3] = system: Klebsiella pneumoniae; assay: Antibacterial activity against Klebsiella pneumoniae isolate Kp7564 harboring IncL/M plasmid and blaIMP-4-qacG2-aacA4-catB3 array by Etest method in presence of clavulanic acid
[4] = system: Klebsiella pneumoniae; assay: Antibacterial activity against Klebsiella pneumoniae isolate Kp38009 harboring IncL/M plasmid and blaIMP-4-qacG2-aacA4-catB3 array by Etest method in presence of clavulanic acid
[5] = system: Morganella morganii; assay: Antibacterial activity against Morganella morganii isolate Mm38009 harboring IncL/M plasmid and blaIMP-4-qacG2-aacA4-catB3 array by Etest method in presence of clavulanic acid
[6] = system: Klebsiella pneumoniae; assay: Antibacterial activity against Klebsiella pneumoniae isolate Kp38045 harboring IncL/M plasmid and blaIMP-4-qacG2-aacA4-catB3 array by Etest method in presence of clavulanic acid
[7] = system: Escherichia coli; assay: Antibacterial activity against Escherichia coli isolate Ec9381 harboring IncL/M plasmid and blaIMP-4-qacG2-aacA4-catB3 array by Etest method in presence of clavulanic acid
[8] = system: Klebsiella oxytoca; assay: Antibacterial activity against Klebsiella oxytoca isolate Ko0426 harboring IncL/M plasmid and blaIMP-4-qacG2-aacA4-catB3 array by Etest method in presence of clavulanic acid
[9] = system: Klebsiella oxytoca; assay: Antibacterial activity against Klebsiella oxytoca isolate Ko1156 harboring IncL/M plasmid and blaIMP-4-qacG2-aacA4-catB3 array by Etest method in presence of clavulanic acid
[10] = system: Citrobacter freundii; assay: Antibacterial activity against Citrobacter freundii isolate Cf1614 harboring IncL/M plasmid and blaIMP-4-qacG2-aacA4-catB3 array by Etest method in presence of clavulanic acid
[11] = system: Morganella morganii; assay: Antibacterial activity against Morganella morganii isolate Mm1614 harboring IncL/M plasmid and blaIMP-4-qacG2-aacA4-catB3 array by Etest method in presence of clavulanic acid
[12] = system: Serratia marcescens; assay: Antibacterial activity against Serratia marcescens isolate Sm201 harboring IncA/C plasmid and blaIMP-4-qacG2-aacA4-catB3 array by Etest method in presence of clavulanic acid
[13] = system: Escherichia coli; assay: Antibacterial activity against Escherichia coli isolate Ec211 harboring IncA/C plasmid and blaIMP-4-qacG2-aacA4-catB3 array by Etest method in presence of clavulanic acid
[14] = system: Serratia marcescens; assay: Antibacterial activity against Serratia marcescens isolate Sm211 harboring IncA/C plasmid and blaIMP-4-qacG2-aacA4-catB3 array by Etest method in presence of clavulanic acid
[15] = system: Citrobacter koseri; assay: Antibacterial activity against Citrobacter koseri isolate Ck211 harboring IncA/C plasmid and blaIMP-4-qacG2-aacA4-catB3 array by Etest method in presence of clavulanic acid
[16] = system: Klebsiella oxytoca; assay: Antibacterial activity against Klebsiella oxytoca isolate Ko238 harboring IncA/C plasmid and blaIMP-4-qacG2-aacA4-catB3 array by Etest method in presence of clavulanic acid
[17] = system: Klebsiella pneumoniae; assay: Antibacterial activity against Klebsiella pneumoniae isolate Kp204 harboring IncA/C plasmid and blaIMP-4-qacG2-aacA4-catB3 array by Etest method in presence of clavulanic acid
[18] = system: Acinetobacter baumannii; assay: Antibacterial activity against Acinetobacter baumannii isolate AbN450 harboring blaIMP-4-qacG2-aacA4-catB3 array by Etest method in presence of clavulanic acid
[19] = system: Klebsiella pneumoniae; assay: Antibacterial activity against Klebsiella pneumoniae Kp2730 transconjugant harboring IncL/M plasmid and blaIMP-4-qacG2-aacA4-catB3 and dfrA12-orfF-aadA2 arrays by Etest method in presence of clavulanic acid
[20] = system: Enterobacter cloacae; assay: Antibacterial activity against Enterobacter cloacae El3518 transconjugant harboring IncL/M plasmid and blaIMP-4-qacG2-aacA4-catB3 array by Etest method in presence of clavulanic acid
[21] = system: Citrobacter amalonaticus; assay: Antibacterial activity against Citrobacter amalonaticus Ca3927 transconjugant harboring IncL/M plasmid and blaIMP-4-qacG2-aacA4-catB3 array by Etest method in presence of clavulanic acid
[22] = system: Enterobacter cloacae; assay: Antibacterial activity against Enterobacter cloacae El1573 transconjugant harboring IncL/M plasmid and blaIMP-4-qacG2-aacA4-catB3 array by Etest method in presence of clavulanic acid
[23] = system: Serratia marcescens; assay: Antibacterial activity against Serratia marcescens Sm2723 transconjugant harboring IncL/M plasmid and blaIMP-4-qacG2-aacA4-catB3 array by Etest method in presence of clavulanic acid
[24] = system: Klebsiella pneumoniae; assay: Antibacterial activity against Klebsiella pneumoniae Kp38009 transconjugant harboring IncL/M plasmid and blaIMP-4-qacG2-aacA4-catB3 array by Etest method in presence of clavulanic acid
[25] = system: Morganella morganii; assay: Antibacterial activity against Morganella morganii Mm38009 transconjugant harboring IncL/M plasmid and blaIMP-4-qacG2-aacA4-catB3 array by Etest method in presence of clavulanic acid
[26] = system: Klebsiella pneumoniae; assay: Antibacterial activity against Klebsiella pneumoniae Kp38045 transconjugant harboring IncL/M plasmid and blaIMP-4-qacG2-aacA4-catB3 array by Etest method in presence of clavulanic acid
[27] = system: Escherichia coli; assay: Antibacterial activity against Escherichia coli Ec9381 transconjugant harboring IncL/M plasmid and blaIMP-4-qacG2-aacA4-catB3 array by Etest method in presence of clavulanic acid
[28] = system: Morganella morganii; assay: Antibacterial activity against Morganella morganii Mm1229 transconjugant harboring IncL/M plasmid and blaIMP-4-qacG2-aacA4-catB3 array by Etest method in presence of clavulanic acid
[29] = system: Klebsiella oxytoca; assay: Antibacterial activity against Klebsiella oxytoca Ko0426 transconjugant harboring IncL/M plasmid and blaIMP-4-qacG2-aacA4-catB3 array by Etest method in presence of clavulanic acid
[30] = system: Klebsiella oxytoca; assay: Antibacterial activity against Klebsiella oxytoca Ko1156 transconjugant harboring IncL/M plasmid and blaIMP-4-qacG2-aacA4-catB3 array by Etest method in presence of clavulanic acid
[31] = system: Escherichia coli; assay: Antibacterial activity against Escherichia coli Ec158 transconjugant harboring IncA/C plasmid and blaIMP-4-qacG2-aacA4-catB3 array by Etest method in presence of clavulanic acid
[32] = system: Klebsiella pneumoniae; assay: Antibacterial activity against Klebsiella pneumoniae Kp149 transconjugant harboring IncA/C plasmid and blaIMP-4-qacG2-aacA4-catB3 array by Etest method in presence of clavulanic acid
[33] = system: Citrobacter koseri; assay: Antibacterial activity against Citrobacter koseri Ck211 transconjugant harboring IncA/C plasmid and blaIMP-4-qacG2-aacA4-catB3 array by Etest method in presence of clavulanic acid
[34] = system: Escherichia coli; assay: Antibacterial activity against Escherichia coli Ec221 transconjugant harboring IncA/C plasmid and blaIMP-4-qacG2-aacA4-catB3 array by Etest method in presence of clavulanic acid
[35] = system: Klebsiella pneumoniae; assay: Antibacterial activity against Klebsiella pneumoniae Kp204 transconjugant harboring IncA/C plasmid and blaIMP-4-qacG2-aacA4-catB3 array by Etest method in presence of clavulanic acid
[36] = system: Serratia marcescens; assay: Antibacterial activity against Serratia marcescens Sm265 transconjugant harboring IncA/C plasmid and blaIMP-4-qacG2-aacA4-catB3 array by Etest method in presence of clavulanic acid

Measured: MIC

CC1(C)S[C@@H]2[C@H](NC(=O)[C@H](N)c3ccc(O)cc3)C(=O)N2[C@H]1C(=O)O [AMOXICILLIN]
> 16 µg/mL: all assays above
